Experiments:
[1] = biological target: Tyrosine-protein kinase JAK2 (Homo sapiens, UniProt O60674)
Description: Inhibition of human JAK2 kinase domain using biotin-Lyn-substrate-2 as substrate incubated for 1 hr by ELISA

[2] = biological target: Tyrosine-protein kinase CSK (Homo sapiens, UniProt P41240); assay: Inhibition of CSK (unknown origin)
Rattus norvegicus = assay: Immunosuppressive activity in Lewis rat transplanted with ACI rat cardiac tissue assessed as reduction in graft rejection by measuring mean survival days at 0.5 mg/kg, po administered for 14 consecutive days co-treated with tacrolimus (reference value: 10 days); type: functional; conditions: time 14 day
[3] = biological target: Calcium/calmodulin-dependent protein kinase type II subunit alpha (Homo sapiens, UniProt Q9UQM7); assay: Inhibition of CAMK2alpha (unknown origin)
Sequence of Calcium/calmodulin-dependent protein kinase type II subunit alpha (Q9UQM7 whole entry): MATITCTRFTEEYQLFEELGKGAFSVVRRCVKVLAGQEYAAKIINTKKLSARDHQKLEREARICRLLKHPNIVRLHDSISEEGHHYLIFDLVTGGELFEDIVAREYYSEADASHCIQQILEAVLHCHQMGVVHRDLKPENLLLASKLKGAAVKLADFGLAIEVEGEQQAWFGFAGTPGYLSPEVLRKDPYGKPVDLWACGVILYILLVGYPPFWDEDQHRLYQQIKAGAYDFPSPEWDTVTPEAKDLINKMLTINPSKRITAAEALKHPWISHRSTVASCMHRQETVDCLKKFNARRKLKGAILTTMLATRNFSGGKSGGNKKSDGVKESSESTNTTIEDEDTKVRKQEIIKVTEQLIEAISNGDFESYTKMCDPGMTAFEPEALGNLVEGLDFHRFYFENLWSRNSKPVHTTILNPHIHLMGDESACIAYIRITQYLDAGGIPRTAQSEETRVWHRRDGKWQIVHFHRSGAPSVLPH

[4] = biological target: Cyclin-dependent kinase 2 (Homo sapiens, UniProt P24941); assay: Inhibition of CDK2 (unknown origin)
[5] = biological target: Dual specificity mitogen-activated protein kinase kinase 1 (Homo sapiens, UniProt Q02750); assay: Inhibition of MAP2K1 (unknown origin)
Sequence of Dual specificity mitogen-activated protein kinase kinase 1 (Q02750 whole entry): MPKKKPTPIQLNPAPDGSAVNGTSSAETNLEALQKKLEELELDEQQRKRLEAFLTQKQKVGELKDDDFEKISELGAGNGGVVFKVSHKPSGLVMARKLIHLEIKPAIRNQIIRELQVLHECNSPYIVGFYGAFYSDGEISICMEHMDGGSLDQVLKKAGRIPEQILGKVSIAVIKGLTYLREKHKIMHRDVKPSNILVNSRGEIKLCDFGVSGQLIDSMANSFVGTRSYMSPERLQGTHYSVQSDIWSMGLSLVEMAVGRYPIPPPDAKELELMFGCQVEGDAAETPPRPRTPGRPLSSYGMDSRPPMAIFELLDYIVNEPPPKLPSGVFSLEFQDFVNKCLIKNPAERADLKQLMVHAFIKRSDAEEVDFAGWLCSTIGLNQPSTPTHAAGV

Cytochrome P450 3A4 = Cytochrome P450 3A4 (Homo sapiens, UniProt P08684); conditions: microsomes, 20 min, 5 µM
Sequence of Cytochrome P450 3A4 (P08684 whole entry): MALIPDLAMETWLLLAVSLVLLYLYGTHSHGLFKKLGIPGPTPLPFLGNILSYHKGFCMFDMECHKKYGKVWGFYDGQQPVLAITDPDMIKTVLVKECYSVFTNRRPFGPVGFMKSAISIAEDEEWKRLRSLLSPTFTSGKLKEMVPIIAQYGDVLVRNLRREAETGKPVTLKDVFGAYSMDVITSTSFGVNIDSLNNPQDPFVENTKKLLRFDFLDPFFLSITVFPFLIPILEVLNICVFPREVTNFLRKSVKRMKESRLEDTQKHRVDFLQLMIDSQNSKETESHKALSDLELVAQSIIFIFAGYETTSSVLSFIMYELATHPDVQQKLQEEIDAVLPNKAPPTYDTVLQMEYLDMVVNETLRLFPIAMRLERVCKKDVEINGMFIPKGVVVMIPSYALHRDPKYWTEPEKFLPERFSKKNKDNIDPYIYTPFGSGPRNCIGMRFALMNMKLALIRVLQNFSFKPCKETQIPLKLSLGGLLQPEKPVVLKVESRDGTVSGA

[6] = biological target: Bone morphogenetic protein receptor type-1A (Homo sapiens, UniProt P36894); assay: Inhibition of BMPR1A (unknown origin)
Sequence of Bone morphogenetic protein receptor type-1A (P36894 whole entry): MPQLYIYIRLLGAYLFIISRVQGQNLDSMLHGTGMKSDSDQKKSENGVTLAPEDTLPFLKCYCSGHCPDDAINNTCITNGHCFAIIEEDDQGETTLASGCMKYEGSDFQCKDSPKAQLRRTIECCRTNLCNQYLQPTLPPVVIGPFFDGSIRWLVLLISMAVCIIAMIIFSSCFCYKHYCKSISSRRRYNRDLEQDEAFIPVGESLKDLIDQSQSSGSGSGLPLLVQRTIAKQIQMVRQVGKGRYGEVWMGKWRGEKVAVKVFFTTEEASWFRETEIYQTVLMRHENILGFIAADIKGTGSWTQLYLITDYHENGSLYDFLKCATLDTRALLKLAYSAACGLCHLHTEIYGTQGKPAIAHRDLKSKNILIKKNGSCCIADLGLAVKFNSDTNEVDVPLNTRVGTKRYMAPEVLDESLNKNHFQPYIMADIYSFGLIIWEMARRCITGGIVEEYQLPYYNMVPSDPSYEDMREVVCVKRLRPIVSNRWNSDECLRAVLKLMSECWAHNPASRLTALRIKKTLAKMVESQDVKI

[7] = AUC (0 to 24 hrs) in Sprague-Dawley rat at 1 mg/kg, po measured up to 24 hrs by LC-MS/MS analysis; type: ADME, organism-based; parameters: dose 1 mg/kg, time < 24 hrs, route po; conditions: in vivo
[8] = Half life in Sprague-Dawley rat at 1 mg/kg, po measured up to 24 hrs by LC-MS/MS analysis; type: ADME, organism-based; conditions: in vivo
[9] = Tmax in Sprague-Dawley rat at 1 mg/kg, po measured up to 24 hrs by LC-MS/MS analysis; type: ADME, organism-based; conditions: in vivo
[10] = biological target: Mitogen-activated protein kinase kinase kinase 1 (Homo sapiens, UniProt Q13233); assay: Inhibition of MAP3K1 (unknown origin)
Sequence of Mitogen-activated protein kinase kinase kinase 1 (Q13233 whole entry, canonical isoform): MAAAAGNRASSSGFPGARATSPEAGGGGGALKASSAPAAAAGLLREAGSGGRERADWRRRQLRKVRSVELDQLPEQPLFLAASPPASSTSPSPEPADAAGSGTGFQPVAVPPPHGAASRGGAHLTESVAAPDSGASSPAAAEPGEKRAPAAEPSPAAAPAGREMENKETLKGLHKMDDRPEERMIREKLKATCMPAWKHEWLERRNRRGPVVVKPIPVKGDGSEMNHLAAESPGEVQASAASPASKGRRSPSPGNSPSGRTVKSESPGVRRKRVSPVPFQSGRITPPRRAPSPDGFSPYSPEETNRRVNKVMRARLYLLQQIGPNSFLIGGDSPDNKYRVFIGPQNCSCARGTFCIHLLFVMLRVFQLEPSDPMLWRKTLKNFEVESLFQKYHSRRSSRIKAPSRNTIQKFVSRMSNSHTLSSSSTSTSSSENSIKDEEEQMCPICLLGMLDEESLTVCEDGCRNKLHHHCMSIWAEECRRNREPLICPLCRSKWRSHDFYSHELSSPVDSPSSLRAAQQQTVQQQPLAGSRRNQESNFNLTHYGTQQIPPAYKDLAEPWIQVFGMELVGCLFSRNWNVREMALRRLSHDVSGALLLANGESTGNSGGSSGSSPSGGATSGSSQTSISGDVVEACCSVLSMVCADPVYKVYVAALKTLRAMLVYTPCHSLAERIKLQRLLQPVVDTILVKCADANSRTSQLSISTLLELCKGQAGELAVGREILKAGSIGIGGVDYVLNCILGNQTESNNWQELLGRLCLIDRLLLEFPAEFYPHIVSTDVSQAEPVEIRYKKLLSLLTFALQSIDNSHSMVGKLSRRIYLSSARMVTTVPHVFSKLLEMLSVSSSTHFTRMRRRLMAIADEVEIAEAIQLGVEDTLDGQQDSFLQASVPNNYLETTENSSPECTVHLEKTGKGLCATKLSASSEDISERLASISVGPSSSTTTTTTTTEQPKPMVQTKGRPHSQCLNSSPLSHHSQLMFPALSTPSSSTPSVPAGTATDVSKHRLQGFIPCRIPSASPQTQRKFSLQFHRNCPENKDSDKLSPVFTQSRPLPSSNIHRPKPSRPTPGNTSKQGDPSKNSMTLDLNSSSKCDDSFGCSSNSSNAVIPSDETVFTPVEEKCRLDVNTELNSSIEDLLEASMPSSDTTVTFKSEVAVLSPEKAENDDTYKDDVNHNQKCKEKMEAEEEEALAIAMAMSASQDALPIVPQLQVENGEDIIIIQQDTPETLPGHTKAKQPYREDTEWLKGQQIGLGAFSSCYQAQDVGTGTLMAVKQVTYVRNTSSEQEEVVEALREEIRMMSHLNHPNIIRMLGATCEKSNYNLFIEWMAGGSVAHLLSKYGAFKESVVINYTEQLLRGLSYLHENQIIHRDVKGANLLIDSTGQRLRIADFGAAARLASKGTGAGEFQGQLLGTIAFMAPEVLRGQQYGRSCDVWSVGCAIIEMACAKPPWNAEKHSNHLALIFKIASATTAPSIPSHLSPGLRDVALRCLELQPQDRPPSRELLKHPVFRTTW

[11] = biological target: Casein kinase I isoform delta (Homo sapiens, UniProt P48730); assay: Inhibition of CHKdelta (unknown origin)
Sequence of Casein kinase I isoform delta (P48730 whole entry, canonical isoform): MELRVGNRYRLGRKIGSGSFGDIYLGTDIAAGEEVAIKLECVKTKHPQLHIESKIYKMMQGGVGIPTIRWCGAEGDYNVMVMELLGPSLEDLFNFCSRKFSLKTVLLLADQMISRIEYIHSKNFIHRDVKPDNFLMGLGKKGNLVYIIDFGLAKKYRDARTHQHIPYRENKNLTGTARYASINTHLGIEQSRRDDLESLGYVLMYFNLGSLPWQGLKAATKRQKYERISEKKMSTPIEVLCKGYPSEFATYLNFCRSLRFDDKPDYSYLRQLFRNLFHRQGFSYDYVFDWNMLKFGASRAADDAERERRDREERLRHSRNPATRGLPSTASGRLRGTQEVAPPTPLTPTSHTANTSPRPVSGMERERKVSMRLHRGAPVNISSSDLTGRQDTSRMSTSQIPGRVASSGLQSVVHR

[12] = biological target: Inhibitor of nuclear factor kappa-B kinase subunit beta (Homo sapiens, UniProt O14920); assay: Inhibition of IKKB (unknown origin)
Sequence of Inhibitor of nuclear factor kappa-B kinase subunit beta (O14920 whole entry): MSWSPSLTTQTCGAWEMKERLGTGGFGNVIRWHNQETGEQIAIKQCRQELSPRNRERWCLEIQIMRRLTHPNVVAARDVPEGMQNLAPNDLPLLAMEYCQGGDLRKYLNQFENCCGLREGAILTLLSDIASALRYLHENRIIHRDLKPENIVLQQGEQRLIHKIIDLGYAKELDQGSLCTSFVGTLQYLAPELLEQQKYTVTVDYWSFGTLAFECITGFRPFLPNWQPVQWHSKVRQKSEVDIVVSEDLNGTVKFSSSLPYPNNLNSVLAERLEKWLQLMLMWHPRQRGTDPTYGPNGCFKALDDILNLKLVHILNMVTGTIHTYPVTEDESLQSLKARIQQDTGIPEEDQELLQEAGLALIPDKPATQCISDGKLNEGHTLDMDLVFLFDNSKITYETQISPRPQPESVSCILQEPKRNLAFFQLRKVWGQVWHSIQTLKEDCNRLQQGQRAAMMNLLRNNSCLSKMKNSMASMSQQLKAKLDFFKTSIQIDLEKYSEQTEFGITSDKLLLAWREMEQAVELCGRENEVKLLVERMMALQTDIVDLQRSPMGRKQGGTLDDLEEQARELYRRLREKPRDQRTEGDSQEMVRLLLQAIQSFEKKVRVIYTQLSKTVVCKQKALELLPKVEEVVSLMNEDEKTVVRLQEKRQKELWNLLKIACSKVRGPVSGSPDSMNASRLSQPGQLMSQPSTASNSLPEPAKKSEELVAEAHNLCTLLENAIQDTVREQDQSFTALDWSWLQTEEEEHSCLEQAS

Sequence of Tyrosine-protein kinase CSK (P41240 whole entry): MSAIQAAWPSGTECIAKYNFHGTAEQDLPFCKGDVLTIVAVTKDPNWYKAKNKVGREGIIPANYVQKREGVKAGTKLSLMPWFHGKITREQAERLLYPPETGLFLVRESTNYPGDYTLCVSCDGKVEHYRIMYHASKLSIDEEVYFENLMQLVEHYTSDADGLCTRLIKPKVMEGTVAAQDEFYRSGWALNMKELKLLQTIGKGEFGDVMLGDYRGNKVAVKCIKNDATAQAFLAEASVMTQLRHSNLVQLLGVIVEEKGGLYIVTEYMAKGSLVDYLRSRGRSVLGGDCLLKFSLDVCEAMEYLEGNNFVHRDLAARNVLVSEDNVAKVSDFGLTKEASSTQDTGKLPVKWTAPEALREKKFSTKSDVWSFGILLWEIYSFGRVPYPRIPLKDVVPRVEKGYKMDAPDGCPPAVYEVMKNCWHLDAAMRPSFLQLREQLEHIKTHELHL

Compound: C[C@@H]1CCN(C(=O)CC#N)C[C@@H]1n1ccc2cnc3[nH]ccc3c21
- IC50 [1]: 0.3 nM
- IC50 [2]: > 1000 nM
- MST (Rattus norvegicus): 21 days
- IC50 [3]: > 1000 nM
- IC50 [4]: > 1000 nM
- IC50 [5]: > 1000 nM
- TDI (Cytochrome P450 3A4): 89%
- IC50 [6]: > 1000 nM
- AUC(0-t) at 24 h [7]: 917 ng·h/mL
- half-life [8]: 2.58 h
- Tmax [9]: 0.5 h
- IC50 [10]: > 1000 nM
- IC50 [11]: > 1000 nM
- IC50 [12]: > 1000 nM

Reference: ChEMBL document CHEMBL5244205, “Discovery of tricyclic dipyrrolopyridine derivatives as novel JAK inhibitors” (Bioorg Med Chem, 2017)
